Laboratory results reported in publication PMC5218480 (PLoS ONE, 2017).

Tested on: MV-4-11 cells
Test: Gene expression microarray analysis (Affymetrix PrimeView) and GSEA
Assay type: cell-based, human
Parameters: RFU PODN (11730768_x_at) / Fold change /veh PODN (11730768_x_at) / RFU LINC00158 (11744669_a_at) / Fold change /veh LINC00158 (11744669_a_at) / RFU DUSP10 (11751237_a_at) / Fold change /veh DUSP10 (11751237_a_at) / RFU ID3 (11757404_x_at) / Fold change /veh ID3 (11757404_x_at) / RFU PLEKHG5 (11737974_s_at) / Fold change /veh PLEKHG5 (11737974_s_at) / RFU LRRC4B (11730491_at) / Fold change /veh LRRC4B (11730491_at) / RFU GIMAP4 (11747438_a_at) / Fold change /veh GIMAP4 (11747438_a_at) / RFU KRT8 (11758183_x_at) / Fold change /veh KRT8 (11758183_x_at) / RFU CNN1 (11734310_a_at) / Fold change /veh CNN1 (11734310_a_at) / RFU VPS37D (11726825_at) / Fold change /veh VPS37D (11726825_at) / RFU C10orf10 (11716522_x_at) / Fold change /veh C10orf10 (11716522_x_at) / RFU KIR2DL2 /// KIR2DL4 /// KIR2DL5A /// KIR2DL5B /// KIR2DS1 /// KIR2DS2 /// KIR2DS3 /// KIR2DS4 /// KIR3DL3 /// KIR3DL3 /// KIR3DS1 (11738374_at) / Fold change /veh KIR2DL2 /// KIR2DL4 /// KIR2DL5A /// KIR2DL5B /// KIR2DS1 /// KIR2DS2 /// KIR2DS3 /// KIR2DS4 /// KIR3DL3 /// KIR3DL3 /// KIR3DS1 (11738374_at) / RFU C1QL1 (11718748_at) / Fold change /veh C1QL1 (11718748_at) / RFU TMPRSS4 (11747572_a_at) / Fold change /veh TMPRSS4 (11747572_a_at) / RFU HAMP (11756126_x_at) / Fold change /veh HAMP (11756126_x_at) / RFU RNFT2 (11725882_a_at) / Fold change /veh RNFT2 (11725882_a_at) / RFU NR4A2 (11747474_a_at) / Fold change /veh NR4A2 (11747474_a_at) / RFU ABCC12 (11746883_a_at) / Fold change /veh ABCC12 (11746883_a_at) / RFU TMEM136 (11760407_x_at) / Fold change /veh TMEM136 (11760407_x_at) / RFU CLDN22 /// WWC2 (11732394_at) / Fold change /veh CLDN22 /// WWC2 (11732394_at) / RFU HLA-DPB1 (11760878_x_at) / Fold change /veh HLA-DPB1 (11760878_x_at) / RFU SPINT1 (11716480_a_at) / Fold change /veh SPINT1 (11716480_a_at) / RFU GAP43 (11754022_s_at) / Fold change /veh GAP43 (11754022_s_at) / RFU A4GNT (11735810_at) / Fold change /veh A4GNT (11735810_at) / RFU PRB3 (11715151_x_at) / Fold change /veh PRB3 (11715151_x_at) / RFU TUBB4B (11761932_at) / Fold change /veh TUBB4B (11761932_at) / RFU CAPN14 (11732068_a_at) / Fold change /veh CAPN14 (11732068_a_at) / RFU TMCC2 (11721928_a_at) / Fold change /veh TMCC2 (11721928_a_at) / RFU IRGQ (11745062_a_at) / Fold change /veh IRGQ (11745062_a_at) / RFU FAM174B (11720279_a_at) / Fold change /veh FAM174B (11720279_a_at) / RFU TMPRSS4 (11748680_a_at) / Fold change /veh TMPRSS4 (11748680_a_at) / RFU FAM212B (11763350_a_at) / Fold change /veh FAM212B (11763350_a_at) / RFU PLEKHG5 (11743358_a_at) / Fold change /veh PLEKHG5 (11743358_a_at) / RFU ZSCAN30 (11745921_a_at) / Fold change /veh ZSCAN30 (11745921_a_at) / RFU CMKLR1 (11741424_a_at) / Fold change /veh CMKLR1 (11741424_a_at) / RFU LOC101060620 /// MAPK8IP1 (11723275_at) / Fold change /veh LOC101060620 /// MAPK8IP1 (11723275_at) / RFU SPTSSB (11747773_x_at) / Fold change /veh SPTSSB (11747773_x_at) / RFU PRSS12 (11739890_at) / Fold change /veh PRSS12 (11739890_at) / RFU BIN1 (11741810_x_at) / Fold change /veh BIN1 (11741810_x_at) / RFU WNT11 (11732464_a_at) / Fold change /veh WNT11 (11732464_a_at) / RFU C10orf10 (11716521_a_at) / Fold change /veh C10orf10 (11716521_a_at) / RFU C5orf56 (11738089_at) / Fold change /veh C5orf56 (11738089_at) / RFU CYB561 (11721691_x_at) / Fold change /veh CYB561 (11721691_x_at) / RFU ANKRD19P (11752326_a_at) / Fold change /veh ANKRD19P (11752326_a_at) / RFU OR2T12 /// OR2T33 /// OR2T8 (11738714_s_at) / Fold change /veh OR2T12 /// OR2T33 /// OR2T8 (11738714_s_at) / RFU VCAN (11748164_a_at) / Fold change /veh VCAN (11748164_a_at) / RFU JSRP1 (11732532_at) / Fold change /veh JSRP1 (11732532_at) / RFU KRTAP10-11 (11738290_x_at) / Fold change /veh KRTAP10-11 (11738290_x_at) / RFU MYO3A (11730013_a_at) / Fold change /veh MYO3A (11730013_a_at) / RFU EBF3 (11725865_a_at) / Fold change /veh EBF3 (11725865_a_at) / RFU CAMK2N1 (11719241_x_at) / Fold change /veh CAMK2N1 (11719241_x_at) / RFU C5orf56 (11738088_a_at) / Fold change /veh C5orf56 (11738088_a_at) / RFU OLFML3 (11715873_a_at) / Fold change /veh OLFML3 (11715873_a_at) / RFU LOC100653217 /// NTM (11731650_a_at) / Fold change /veh LOC100653217 /// NTM (11731650_a_at) / RFU MAPK11 (11762145_a_at) / Fold change /veh MAPK11 (11762145_a_at) / RFU FIZ1 (11724087_x_at) / Fold change /veh FIZ1 (11724087_x_at) / RFU OASL (11726364_x_at) / Fold change /veh OASL (11726364_x_at) / RFU SOX15 (11748057_x_at) / Fold change /veh SOX15 (11748057_x_at) / RFU CD79A (11719716_a_at) / Fold change /veh CD79A (11719716_a_at) / RFU HIST1H1D (11736915_at) / Fold change /veh HIST1H1D (11736915_at) / RFU CASKIN2 (11723855_a_at) / Fold change /veh CASKIN2 (11723855_a_at) / RFU LOC730098 (11760151_x_at) / Fold change /veh LOC730098 (11760151_x_at) / RFU OR4N2 (11742367_at) / Fold change /veh OR4N2 (11742367_at) / RFU PRRT2 (11749266_a_at) / Fold change /veh PRRT2 (11749266_a_at) / RFU SNX32 (11753110_a_at) / Fold change /veh SNX32 (11753110_a_at) / RFU CDHR5 (11726645_a_at) / Fold change /veh CDHR5 (11726645_a_at) / RFU RCAN1 (11760418_a_at) / Fold change /veh RCAN1 (11760418_a_at) / RFU FAM167A (11723789_a_at) / Fold change /veh FAM167A (11723789_a_at) / RFU FAM26E (11764081_at) / Fold change /veh FAM26E (11764081_at) / RFU ISYNA1 (11749810_s_at) / Fold change /veh ISYNA1 (11749810_s_at) / RFU ACY1 (11761880_at) / Fold change /veh ACY1 (11761880_at) / RFU 11764098_at / Fold change /veh 11764098_at / RFU SAMD14 (11745864_x_at) / Fold change /veh SAMD14 (11745864_x_at) / RFU NPB (11741838_a_at) / Fold change /veh NPB (11741838_a_at) / RFU TMPRSS6 (11731388_a_at) / Fold change /veh TMPRSS6 (11731388_a_at) / RFU KRTAP10-2 (11738614_at) / Fold change /veh KRTAP10-2 (11738614_at) / RFU ARHGAP8 /// PRR5-ARHGAP8 (11727945_x_at) / Fold change /veh ARHGAP8 /// PRR5-ARHGAP8 (11727945_x_at) / RFU KRTAP5-7 /// NADSYN1 (11734609_at) / Fold change /veh KRTAP5-7 /// NADSYN1 (11734609_at) / RFU RASL12 (11751679_a_at) / Fold change /veh RASL12 (11751679_a_at) / RFU CDKN2B (11736163_a_at) / Fold change /veh CDKN2B (11736163_a_at) / RFU PRF1 (11729649_at) / Fold change /veh PRF1 (11729649_at) / RFU, ZNF638 /// ZNF638-IT1 / Fold change vs veh, ZNF638 /// ZNF638-IT1 / RFU, PANK3 / Fold change vs veh, PANK3 / RFU, SH3YL1 / Fold change vs veh, SH3YL1 / RFU, ZEB2 / Fold change vs veh, ZEB2 / RFU, NRIP1 / Fold change vs veh, NRIP1 / RFU, PTTG1IP / Fold change vs veh, PTTG1IP / RFU, CAPN2 / Fold change vs veh, CAPN2 / RFU, MED14 / Fold change vs veh, MED14 / RFU, SNORA58 / Fold change vs veh, SNORA58 / RFU, C1orf63 / Fold change vs veh, C1orf63 / RFU, LRRFIP1 / Fold change vs veh, LRRFIP1 / RFU, NDUFAF7 / Fold change vs veh, NDUFAF7 / RFU, SLC12A2 / Fold change vs veh, SLC12A2 / RFU, IBTK / Fold change vs veh, IBTK / RFU, ESF1 / Fold change vs veh, ESF1 / Fold change vs veh, TMEM50B / RFU, TAOK1 / Fold change vs veh, TAOK1 / RFU, ACBD3 / Fold change vs veh, ACBD3 / RFU, TMA16 / Fold change vs veh, TMA16 / RFU, RWDD3 / Fold change vs veh, RWDD3 / RFU, BCAT1 / Fold change vs veh, BCAT1 / RFU, EDEM3 / Fold change vs veh, EDEM3 / RFU, TMEM33 / Fold change vs veh, TMEM33 / RFU, WDR75 / Fold change vs veh, WDR75 / RFU, AHCTF1 / Fold change vs veh, AHCTF1 / RFU, TFRC / Fold change vs veh, TFRC / RFU, ZDHHC17 / Fold change vs veh, ZDHHC17 / RFU, NOM1 / Fold change vs veh, NOM1 / RFU, ARL8B / Fold change vs veh, ARL8B / RFU, ZBTB11 / Fold change vs veh, ZBTB11 / RFU, TAMM41 / Fold change vs veh, TAMM41 / RFU, KIAA1704 /// LOC100996395 / Fold change vs veh, KIAA1704 /// LOC100996395 / RFU, ING1 / Fold change vs veh, ING1 / RFU, TRMT61B / Fold change vs veh, TRMT61B / RFU, FUBP3 / Fold change vs veh, FUBP3 / RFU, TP53 / Fold change vs veh, TP53 / RFU, TNKS2 / Fold change vs veh, TNKS2 / RFU, ZFP14 / Fold change vs veh, ZFP14 / RFU, ACTR2 / Fold change vs veh, ACTR2 / RFU, PPP3R1 / Fold change vs veh, PPP3R1 / RFU, PIK3R1 / Fold change vs veh, PIK3R1 / RFU, HNRNPA1 / Fold change vs veh, HNRNPA1 / RFU, RNF170 / Fold change vs veh, RNF170 / RFU, ZNF28 / Fold change vs veh, ZNF28 / RFU, RNGTT / Fold change vs veh, RNGTT / RFU, OGT / Fold change vs veh, OGT / RFU, BRD1 / Fold change vs veh, BRD1 / RFU, MARS / Fold change vs veh, MARS / RFU, ZNF655 / Fold change vs veh, ZNF655 / RFU, FAHD1 / Fold change vs veh, FAHD1 / RFU, BDP1 / Fold change vs veh, BDP1 / RFU, LRRCC1 / Fold change vs veh, LRRCC1 / RFU, ARID1A / Fold change vs veh, ARID1A / RFU, ZNF146 / Fold change vs veh, ZNF146 / RFU, ZNF330 / Fold change vs veh, ZNF330 / RFU, GPN3 / Fold change vs veh, GPN3 / RFU, C9orf123 / Fold change vs veh, C9orf123 / RFU, N4BP2L2 / Fold change vs veh, N4BP2L2 / RFU, ARFIP1 / Fold change vs veh, ARFIP1 / RFU, FAM179B / Fold change vs veh, FAM179B / RFU, BCL10 / Fold change vs veh, BCL10 / RFU, UHRF1BP1L / Fold change vs veh, UHRF1BP1L / RFU, BET1 / Fold change vs veh, BET1 / RFU, CNOT2 / Fold change vs veh, CNOT2 / RFU, ZNF268 / Fold change vs veh, ZNF268 / Fold change vs veh, ZNF507 / RFU, DGCR2 / Fold change vs veh, DGCR2 / RFU, WDSUB1 / Fold change vs veh, WDSUB1 / Fold change vs veh, HSP90B1 /// MIR3652 / RFU, ADSS / Fold change vs veh, ADSS / RFU, GK / Fold change vs veh, GK / RFU, ZNF148 / Fold change vs veh, ZNF148 / RFU, TAF9 / Fold change vs veh, TAF9 / RFU, SLC1A5 / Fold change vs veh, SLC1A5 / RFU, SLMO2 / Fold change vs veh, SLMO2 / RFU, ABCC4 / Fold change vs veh, ABCC4 / RFU, LOC101060439 /// RAP1B / Fold change vs veh, LOC101060439 /// RAP1B / RFU, RFX7 / Fold change vs veh, RFX7 / RFU, GTPBP10 / Fold change vs veh, GTPBP10 / RFU, CNEP1R1 / Fold change vs veh, CNEP1R1 / RFU, BIVM-ERCC5 /// ERCC5 / Fold change vs veh, BIVM-ERCC5 /// ERCC5 / RFU, ILF3 / Fold change vs veh, ILF3 / RFU 11762660_at / Fold change /veh 11762660_at / RFU VCAN (11757783_s_at) / Fold change /veh VCAN (11757783_s_at) / RFU DDX43 (11728927_at) / Fold change /veh DDX43 (11728927_at) / RFU KRT8 (11758188_x_at) / Fold change /veh KRT8 (11758188_x_at) / RFU NKD1 (11759106_at) / Fold change /veh NKD1 (11759106_at) / RFU SRD5A1 (11742802_a_at) / Fold change /veh SRD5A1 (11742802_a_at) / RFU TPSAB1 /// TPSB2 (11721975_s_at) / Fold change /veh TPSAB1 /// TPSB2 (11721975_s_at) / RFU GSTM3 (11746129_a_at) / Fold change /veh GSTM3 (11746129_a_at) / RFU IL23R (11737362_x_at) / Fold change /veh IL23R (11737362_x_at) / RFU TMEM51 (11727254_a_at) / Fold change /veh TMEM51 (11727254_a_at) / RFU PIWIL2 (11732686_x_at) / Fold change /veh PIWIL2 (11732686_x_at) / RFU ORM1 (11744905_x_at) / Fold change /veh ORM1 (11744905_x_at) / RFU CCDC152 (11743942_at) / Fold change /veh CCDC152 (11743942_at) / RFU ECM1 (11717891_a_at) / Fold change /veh ECM1 (11717891_a_at) / RFU IL23R (11748794_a_at) / Fold change /veh IL23R (11748794_a_at) / RFU TNFAIP8L3 (11732012_x_at) / Fold change /veh TNFAIP8L3 (11732012_x_at) / RFU MBOAT4 (11741988_at) / Fold change /veh MBOAT4 (11741988_at) / RFU 11764193_at / Fold change /veh 11764193_at / RFU TMEM53 (11763286_at) / Fold change /veh TMEM53 (11763286_at) / RFU MAGEB2 (11727129_at) / Fold change /veh MAGEB2 (11727129_at) / RFU TMEM200A (11744735_a_at) / Fold change /veh TMEM200A (11744735_a_at) / RFU CCDC152 (11751479_a_at) / Fold change /veh CCDC152 (11751479_a_at) / RFU FAM211A (11726209_a_at) / Fold change /veh FAM211A (11726209_a_at) / RFU RGS16 (11746705_a_at) / Fold change /veh RGS16 (11746705_a_at) / RFU VCAN (11755009_s_at) / Fold change /veh VCAN (11755009_s_at) / RFU RHOB (11743442_s_at) / Fold change /veh RHOB (11743442_s_at) / RFU RGS16 (11720943_a_at) / Fold change /veh RGS16 (11720943_a_at) / RFU RGS16 (11720944_at) / Fold change /veh RGS16 (11720944_at) / RFU, VPS4B / Fold change vs veh, VPS4B / RFU, CREB1 / Fold change vs veh, CREB1 / RFU, DNAJC13 / Fold change vs veh, DNAJC13 / RFU, GNAQ / Fold change vs veh, GNAQ / RFU, CDK5R1 / Fold change vs veh, CDK5R1 / RFU, ZRANB3 / Fold change vs veh, ZRANB3 / RFU, CUL4A / Fold change vs veh, CUL4A / RFU, CCNY / Fold change vs veh, CCNY / RFU, UFL1 / Fold change vs veh, UFL1 / RFU, COG3 / Fold change vs veh, COG3 / RFU, DIAPH2 / Fold change vs veh, DIAPH2 / RFU, SKA2 / Fold change vs veh, SKA2 / RFU, AFF3 / Fold change vs veh, AFF3 / RFU, LMF1 / Fold change vs veh, LMF1 / RFU, IPO11 / Fold change vs veh, IPO11 / RFU, DFFB / Fold change vs veh, DFFB / RFU, FOXP1 / Fold change vs veh, FOXP1 / RFU, CARD8 / Fold change vs veh, CARD8 / RFU, STRN3 / Fold change vs veh, STRN3 / RFU, ADK / Fold change vs veh, ADK / RFU, RASSF2 / Fold change vs veh, RASSF2 / RFU, WIPF1 / Fold change vs veh, WIPF1 / RFU, LARP1B / Fold change vs veh, LARP1B / RFU, RASA1 / Fold change vs veh, RASA1 / RFU, RB1 / Fold change vs veh, RB1 / RFU, PPFIA1 / Fold change vs veh, PPFIA1 / RFU, MAT2A / Fold change vs veh, MAT2A / RFU, CCT5 / Fold change vs veh, CCT5 / RFU, WDR92 / Fold change vs veh, WDR92 / RFU, CUX1 / Fold change vs veh, CUX1 / RFU, TTC7A / Fold change vs veh, TTC7A / RFU, TMEM135 / Fold change vs veh, TMEM135 / RFU, DEPTOR / Fold change vs veh, DEPTOR / RFU, CPM / Fold change vs veh, CPM / RFU, DNAJB6 / Fold change vs veh, DNAJB6 / RFU, CACNA2D3 / Fold change vs veh, CACNA2D3 / RFU, DTX4 / Fold change vs veh, DTX4 / RFU, TFCP2 / Fold change vs veh, TFCP2 / RFU, GMCL1 /// GMCL1P1 / Fold change vs veh, GMCL1 /// GMCL1P1 / RFU, AEBP2 / Fold change vs veh, AEBP2 / RFU, SNHG1 /// SNORD22 /// SNORD25 /// SNORD26 /// SNORD27 /// SNORD28 /// SNORD29 /// SNORD31 / Fold change vs veh, SNHG1 /// SNORD22 /// SNORD25 /// SNORD26 /// SNORD27 /// SNORD28 /// SNORD29 /// SNORD31 / Fold change (Aza/veh), C12orf56 (ProbeSet 11735607_a_at) / Fold change (ACY-1035/veh), C12orf56 (ProbeSet 11735607_a_at) / Fold change (Aza/veh), FGFR1OP (ProbeSet 11751329_s_at) / Fold change (ACY-1035/veh), FGFR1OP (ProbeSet 11751329_s_at) / Fold change (Aza/veh), VPS36 (ProbeSet 11739960_a_at) / Fold change (ACY-1035/veh), VPS36 (ProbeSet 11739960_a_at) / RFU SYPL1 (11715823_x_at) / Fold change /veh SYPL1 (11715823_x_at) / RFU IGFBP7 (11715501_s_at) / Fold change /veh IGFBP7 (11715501_s_at) / RFU REEP3 (11722064_at) / Fold change /veh REEP3 (11722064_at) / RFU IGLL1 (11728026_x_at) / Fold change /veh IGLL1 (11728026_x_at): dose or concentration left out as unconfirmed
Conditions: MV-4-11 cells, 48 hours

Nc1ccc(-c2cccs2)cc1NC(=O)c1ccc2c(c1)cc(C1CC1)n2CCN1CCOCC1 [ACY-1035]
RFU MYO3A (11730013_a_at): 90.31 RFU
